Test results taken from patent US20250228772A1, “DRUG DELIVERY SYSTEM COMPRISING A REFLUX INHIBITOR FOR THE APPLICATION TO ESOPHAGEAL MUCOUS MEMBRANES” (EsoCap AG, priority 2022, published 2025).

Experiments:
[1] = UV/Vis spectroscopy of film samples against a reference sample; assay type: physicochemical; settings: PVA 18-88/glycerol film, FSG medium pH 1.2, spectrum compared with a reference sample
Description: Further, the film was analyzed for the content of Baclofen. To this end, 6 circular samples with a diameter of 1.9 cm (2.84 cm^2) were cut at random positions of the film and analyzed with a UV/Vis spectroscopy in FSG medium, pH 1.2. The absorption spectrum is shown in FIG. 10 in comparison to a reference sample comprising Baclofen solved in FSG medium, pH 1.2.

[2] = system: reflux episodes and transient lower esophageal sphincter relaxations; settings: meta-analysis of nine clinical studies; cited from earlier work
[3] = system: transient lower esophageal sphincter relaxations; settings: after systemic administration (Lidums 2000); cited from earlier work
[4] = oral administration, clinical use, 15 to 75 mg per day; cited from earlier work

**Q.** For `NCC(CC(=O)O)c1ccc(Cl)cc1` (stereo not drawn) [Baclofen, 4-Amino-3-(4-chlorphenyl) butyric acid], which “stability of Baclofen in the polymer film” value [1] is on record?
**A.** Its value is “can be stably prepared in a film”.

**Q.** What about the “incidence of transient lower esophageal sphincter relaxations” value [2] of the same compound?
**A.** Its value is “decreased”.

**Q.** What about the “length of reflux episodes” value [2] of the same compound?
**A.** Its value is “decreased”.

**Q.** What about the “number of reflux episodes” value [2] of the same compound?
**A.** Its value is “decreased”.

**Q.** What about the “transient lower esophageal sphincter relaxations” value [3] of the same compound?
**A.** Its value is “control transient lower esophageal sphincter relaxations”.

**Q.** What about the “tolerability / side effects” value [4] of the same compound?
**A.** Its value is “poor tolerability due to severe side effects”.
